Measured values taken from US20090048258A1, “Amide Compound” (priority 2005, published 2009).
pIC50: −log10 of the molar value. Read-outs that look alike come from different tables or passages of the source.

Target: T1, Human DGAT1 (Homo sapiens, UniProt O75907)
T1 construct: my translation of the primer: M-G-DYKDDDD-GDRGSSRRR) (N); made in house; host or cells: Sf9 insect cells (recombinant baculovirus BAC-DGAT1, pFASTBAC1); microsome fraction
T1 sequence (O75907 1-488): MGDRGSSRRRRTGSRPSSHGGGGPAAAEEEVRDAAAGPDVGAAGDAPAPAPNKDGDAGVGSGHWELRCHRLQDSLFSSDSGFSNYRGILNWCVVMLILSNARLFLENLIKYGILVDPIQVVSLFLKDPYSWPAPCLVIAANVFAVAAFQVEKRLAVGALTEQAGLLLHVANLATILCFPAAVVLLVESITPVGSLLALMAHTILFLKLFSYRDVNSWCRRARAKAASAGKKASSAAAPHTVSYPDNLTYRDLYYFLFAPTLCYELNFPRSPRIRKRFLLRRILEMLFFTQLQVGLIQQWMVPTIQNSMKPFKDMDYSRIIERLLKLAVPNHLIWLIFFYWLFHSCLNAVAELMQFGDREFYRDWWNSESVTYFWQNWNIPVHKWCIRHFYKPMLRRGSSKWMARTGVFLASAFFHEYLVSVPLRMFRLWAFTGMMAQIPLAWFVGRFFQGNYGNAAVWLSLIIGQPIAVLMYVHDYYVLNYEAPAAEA
Assay: DGAT inhibitory activity: [14C]-triglyceride synthesis by DGAT1 high expression Sf9 microsome
Type: biochemical
Conditions: 25 μM [14C]-Oleoyl-CoA, 32° C., 15 min, read-out: DGAT inhibitory activity (according to IC50)
Summary of the method: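 DGAT1 was overexpressed from recombinant baculovirus in Sf9 cells, and microsomes from these cells were the enzyme source. Reactions ran in 100 mM Tris-HCl pH 7.5, 250 mM sucrose, 150 mM MgCl2 and 0.01% BSA. [14C]-triglyceride was extracted into chloroform, separated by TLC and quantified by imaging plate, with inhibition calculated against control and blank (no microsome) counts.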

[1] = Table 2, 25 μM dioleoylglycerol
[2] = Table 1, 25 μM dioleoylglycerol

Row | SMILES | pIC50 [1] | pIC50 [2]
1 | N#Cc1ccccc1-c1cc(NC(=O)CCC(=O)c2ccc3c(c2)CCO3)nc(-c2ccccc2)c1 [Example 176, N-[4-(2-cyanophenyl)-6-phenylpyridin-2-yl]-4-(2,3-dihydro-1-benzofuran-5-yl)-4-oxobutanamide] | ≥ 8.00 | –
2 | COc1ccc(C(=O)CCC(=O)Nc2cc(-c3ccccc3)c(Cc3ccccc3)s2)cc1OC [Example 48, N-(5-benzyl-4-phenyl-2-thienyl)-4-(3,4-dimethoxyphenyl)-4-oxobutanamide] | – | 7.30 to 8.00
3 | O=C(CCC(=O)c1ccc2c(c1)CCO2)Nc1cc(-c2cccc(OC(F)(F)F)c2)cc(-c2ccccc2)n1 [Example 175, 4-(2,3-dihydro-1-benzofuran-5-yl)-4-oxo-N-{6-phenyl-4-[3-(trifluoromethoxy)phenyl]pyridin-2-yl}butanamide] | 6.30 to 7.30 | –
4 | O=C(CCC(=O)c1ccc2c(c1)CCO2)Nc1cc(-c2ccccc2C(=O)O)cc(-c2ccccc2)n1 [Example 180, 2-(2-{[4-(2,3-dihydro-1-benzofuran-5-yl)-4-oxobutanoyl]amino}-6-phenylpyridin-4-yl)benzoic acid] | 5.00 to 6.30 | –
5 | CCCc1cc(C(=O)CCC(=O)Nc2cc(-c3ccccc3)c(Cc3ccccc3)s2)ccc1OCC [Example 97, N-(5-benzyl-4-phenyl-2-thienyl)-4-(4-ethoxy-3-propylphenyl)-4-oxobutanamide] | 6.30 to 7.30 | –
6 | O=C(CCC(=O)c1ccccc1)Nc1nc(-c2ccccc2)c(Cc2ccccc2)s1 [Example 2, N-(5-benzyl-4-phenyl-1,3-thiazol-2-yl)-4-oxo-4-phenylbutanamide] | – | 6.30 to 7.30
7 | O=C(CCC(=O)c1ccc2c(c1)OCCO2)Nc1nc(-c2ccccc2)c(Cc2ccccc2)s1 [Example 67, N-(5-benzyl-4-phenyl-1,3-thiazol-2-yl)-4-(2,3-dihydro-1,4-benzodioxin-6-yl)-4-oxobutanamide] | 6.30 to 7.30 | –
8 | COc1ccc(C(=O)CCC(=O)Nc2cc(-c3ccccc3)c(Cc3ccccc3)s2)cc1CCCO [Example 54, N-(5-benzyl-4-phenyl-2-thienyl)-4-[3-(3-hydroxypropyl)-4-methoxyphenyl]-4-oxobutanamide] | – | 6.30 to 7.30
9 | COc1cc2c(cc1C(=O)CCC(=O)Nc1nc(-c3ccccc3)c(Cc3ccccc3)s1)CCCC2 [Example 29, N-(5-benzyl-4-phenyl-1,3-thiazol-2-yl)-4-(3-methoxy-5,6,7,8-tetrahydronaphthalen-2-yl)-4-oxobutanamide] | – | 7.30 to 8.00
10 | COc1ccc(C(=O)CCC(=O)Nc2nc(-c3ccccc3)c(Cc3ccccc3)s2)cc1OC [Example 71, N-(5-benzyl-4-phenyl-1,3-thiazol-2-yl)-4-(3,4-dimethoxyphenyl)-4-oxobutanamide] | ≥ 8.00 | –
11 | O=C(CCC(=O)c1ccc2c(c1)CCCC2)Nc1cc(-c2ccccc2)c(Cc2ccccc2)s1 [Example 99, N-(5-benzyl-4-phenyl-2-thienyl)-4-oxo-4-(5,6,7,8-tetrahydronaphthalen-2-yl)butanamide] | 6.30 to 7.30 | –
12 | CCCCCC/C=C/c1cc(NC(=O)CCC(=O)c2ccc3c(c2)CCO3)nc(-c2ccccc2)c1 [Example 184, 4-(2,3-dihydro-1-benzofuran-5-yl)-N-{4-[(1E)-octa-1-en-1-yl]-6-phenylpyridin-2-yl}-4-oxobutanamide] | 5.00 to 6.30 | –
13 | CCOc1ccc(C(=O)CCC(=O)Nc2cc(-c3ccccc3)c(C(=O)OC(C)(C)C)s2)cc1OCC [Example 56, tert-butyl 5-{[4-(3,4-diethoxyphenyl)-4-oxobutanoyl]amino}-3-phenylthiophene-2-carboxylate] | – | 6.30 to 7.30

Other lines, results leading:

Row | pIC50 [1] | pIC50 [2] | SMILES
14 | 5.00 to 6.30 | – | CCOc1ccc(C(=O)CCC(=O)Nc2cc(-c3ccc(C(=O)OC)cc3)cc(-c3ccccc3)n2)cc1OCC [Example 112, methyl 4-(2-{[4-(3,4-diethoxyphenyl)-4-oxobutanoyl]amino}-6-phenylpyridin-4-yl)benzoate]
15 | 5.00 to 6.30 | – | CCOc1ccc(C(=O)CCC(=O)Nc2cc(-c3ccc(CCC(=O)O)cc3)cc(-c3ccccc3)n2)cc1OCC [Example 125, 3-[4-(2-{[4-(3,4-diethoxyphenyl)-4-oxobutanoyl]amino}-6-phenylpyridin-4-yl)phenyl]propanoic acid]
16 | 6.30 to 7.30 | – | O=C(CCC(=O)c1ccc2c(c1)CCO2)Nc1cc(-c2ccoc2)cc(-c2ccccc2)n1 [Example 115, 4-(2,3-dihydro-1-benzofuran-5-yl)-N-[4-(3-furyl)-6-phenylpyridin-2-yl]-4-oxobutanamide]
17 | 7.30 to 8.00 | – | CCOc1ccc(C(=O)CCC(=O)Nc2cc(-c3ccc(C)cc3)c3cc(Br)ccc3n2)cc1OCC [Example 76, N-[6-bromo-4-(4-methylphenyl)quinolin-2-yl]-4-(3,4-diethoxyphenyl)-4-oxobutanamide]
18 | 5.00 to 6.30 | – | CCOc1ccc(C(=O)CCC(=O)Nc2cc(-c3cccc(C(=O)OC)c3)cc(-c3ccccc3)n2)cc1OCC [Example 139, methyl 3-(2-{[4-(3,4-diethoxyphenyl)-4-oxobutanoyl]amino}-6-phenylpyridin-4-yl)benzoate]
19 | 5.00 to 6.30 | – | COc1cc(-c2cc(NC(=O)CCC(=O)c3ccc4c(c3)CCO4)nc(-c3ccccc3)c2)cc(OC)c1OC [Example 182, 4-(2,3-dihydro-1-benzofuran-5-yl)-4-oxo-N-[6-phenyl-4-(3,4,5-trimethoxyphenyl)pyridin-2-yl]butanamide]
20 | 6.30 to 7.30 | – | CCOc1ccc(C(=O)CCC(=O)Nc2cc(-c3cccc(CCC(=O)OC)c3)cc(-c3ccccc3)n2)cc1OCC [Example 142, methyl 3-[3-(2-{[4-(3,4-diethoxyphenyl)-4-oxobutanoyl]amino}-6-phenylpyridin-4-yl)phenyl]propanoate]
21 | 5.00 to 6.30 | – | COC(=O)/C=C/c1ccc(-c2cc(NC(=O)CCC(=O)c3ccc4c(c3)CCO4)nc(-c3ccccc3)c2)cc1 [Example 159, methyl (2E)-3-[4-(2-{[4-(2,3-dihydro-1-benzofuran-5-yl)-4-oxobutanoyl]amino}-6-phenylpyridin-4-yl)phenyl]acrylate]
22 | 5.00 to 6.30 | – | CCOc1ccc(C(=O)CCC(=O)Nc2cc(-c3cccc(C(=O)O)c3)cc(-c3ccccc3)n2)cc1OCC [Example 138, 3-(2-{[4-(3,4-diethoxyphenyl)-4-oxobutanoyl]amino}-6-phenylpyridin-4-yl)benzoic acid]
23 | 6.30 to 7.30 | – | CCOc1ccc(C(=O)CCC(=O)Nc2cc(-c3cccc(OC)c3)cc(-c3ccccc3)n2)cc1OCC [Example 106, 4-(3,4-diethoxyphenyl)-N-[4-(3-methoxyphenyl)-6-phenylpyridin-2-yl]-4-oxobutanamide]
24 | 6.30 to 7.30 | – | CCOc1ccc(C(=O)CCC(=O)Nc2cc(-c3cccc(CO)c3)cc(-c3ccccc3)n2)cc1OCC [Example 136, 4-(3,4-diethoxyphenyl)-N-{4-[3-(hydroxymethyl)phenyl]-6-phenylpyridin-2-yl}-4-oxobutanamide]
25 | 5.00 to 6.30 | – | CCOc1ccc(C(=O)CCC(=O)Nc2cc(-c3ccc(C4CCCCC4)cc3)cc(-c3ccccc3)n2)cc1OCC [Example 110, N-[4-(4-cyclohexylphenyl)-6-phenylpyridin-2-yl]-4-(3,4-diethoxyphenyl)-4-oxobutanamide]
26 | 6.30 to 7.30 | – | CCOc1ccc(C(=O)CCC(=O)Nc2cc(-c3ccc(OCCNC(=O)OC(C)(C)C)cc3)c3ccccc3n2)cc1OCC [Example 92, tert-butyl {2-[4-(2-{[4-(3,4-diethoxyphenyl)-4-oxobutanoyl]amino}quinolin-4-yl)phenoxy]ethyl}carbamate]
